Values of other authors in patent US6334999B1, “Liposomal aerosols for delivery of chemotherapeutic retinoids to the lungs” (Research Development Foundation, priority 1999, dated 2002).

Details: mouse, in vivo

## CC1=C(/C=C/C(C)=C/C=C/C(C)=C/C(=O)O)C(C)(C)CCC1 [free ATRA, all-trans-retinoic acid]
  dose exerting toxic effects: 25-30 mg/kg of body weight
